pIC50: −log10 of the molar value. Where a name gives a salt, the structure may show the parent alone.
How the values were obtained:
SW480 cells = test: SW480 Cellular Proliferation Assay (CellTiter-Glo); assay type: cell-based; details: Homo sapiens, 96 h, 4 days
Description: (§1) Cells were treated with compounds diluted in DMSO and a 10 point 3-fold serial dilutions. Plates were placed in 37° C., 5% CO2 for to incubate for 4 days. Before they were developed by adding 100 μL of CellTiter-Glo reagent (Promega) to the assay plate, plates were shaken briefly for 2 mins and allowed to incubate at RT for 60 mins. The bottom of the plates was pasted with white back seal and luminescence was recorded with Enspire or Envision.

H23 cells = test: H23 Cellular Proliferation Assay (CellTiter-Glo); assay type: cell-based; details: Homo sapiens, NCI-H23, 96 h, 4 days
Description: as §1, with “a 9” for “a 10”, “point 5-fold” for “point 3-fold”, “CO2” for “CO2 for”, “for 10” for “for 60”, “mins. The plates are read with a M5e plate reader according to CellTiter-Glo protocol. The GraphPad Prism software was used to get IC50 values.” for “mins.”

Wee1 kinase = Wee1 kinase (Homo sapiens (Human), UniProt P30291); test: Wee1 Binding Assay (FRET); details: Wee1 kinase 2 nM, tracer 178 50 nM, 60 min at RT, read-out: Wee1 Enzymatic IC50
Description: Wee 1 kinase was determined by using Flurorescence Resonance Energy Transfer (FRET) assay. […] The plate was shaken for 30 seconds, incubated for 60 min at RT, and recorded on fluorescence plate reader.

Sequence of Wee1 kinase (P30291 whole entry): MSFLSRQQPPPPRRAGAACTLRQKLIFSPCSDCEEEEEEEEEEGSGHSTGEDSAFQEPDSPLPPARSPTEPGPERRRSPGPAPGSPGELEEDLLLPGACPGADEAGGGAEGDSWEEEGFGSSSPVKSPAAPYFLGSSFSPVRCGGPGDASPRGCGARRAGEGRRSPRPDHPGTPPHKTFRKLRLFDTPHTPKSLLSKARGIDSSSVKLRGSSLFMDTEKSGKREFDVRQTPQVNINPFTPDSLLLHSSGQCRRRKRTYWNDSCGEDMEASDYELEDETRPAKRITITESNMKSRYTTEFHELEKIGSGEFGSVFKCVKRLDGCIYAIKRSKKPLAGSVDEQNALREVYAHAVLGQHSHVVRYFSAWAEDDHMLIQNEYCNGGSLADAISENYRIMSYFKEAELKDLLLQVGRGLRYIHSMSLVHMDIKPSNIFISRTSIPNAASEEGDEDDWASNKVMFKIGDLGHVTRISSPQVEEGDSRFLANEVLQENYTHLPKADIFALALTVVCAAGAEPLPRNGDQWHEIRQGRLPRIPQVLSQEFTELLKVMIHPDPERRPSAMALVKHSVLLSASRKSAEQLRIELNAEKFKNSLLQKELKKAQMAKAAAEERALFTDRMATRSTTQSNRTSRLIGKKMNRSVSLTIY

Row | Structure (SMILES) | pIC50 (SW480 cells) | pIC50 (H23 cells) | pIC50 (Wee1 kinase)
1 | C=CCn1c(=O)c2cnc(Nc3ccc4c(c3)CN(C)CC4)nc2n1-c1cccc(C(C)(C)O)n1 [Example 5, 2-Allyl-1-(6-(2-hydroxypropan-2-yl)pyridin-2-yl)-6-((2-methyl-1,2,3,4-tetrahydroisoquinolin-7-yl)amino)-1,2-dihydro-3H-pyrazolo[3,4-d]pyrimidin-3-one] | 6.00 to 7.00 | > 7.00 | > 8.00
2 | C=CCn1c(=O)c2cnc(Nc3ccc4c(c3)CN(CCO)CC4)nc2n1-c1cccc(C(C)(C)O)n1 [Example 13, 2-Allyl-6-((2-(2-hydroxyethyl)-1,2,3,4-tetrahydroisoquinolin-7-yl)amino)-1-(6-(2-hydroxypropan-2-yl)pyridin-2-yl)-1,2-dihydro-3H-pyrazolo[3,4-d]pyrimidin-3-one hydrochloride] | < 6.00 | 6.00 to 7.00 | > 8.00
3 | C=CCn1c(=O)c2cnc(Nc3ccc4c(c3)CC(N(C)C)C4)nc2n1-c1cccc(C(C)(C)O)n1 (stereo not drawn) [Example 22, 2-allyl-6-((2-(dimethylamino)-2,3-dihydro-1H-inden-5-yl)amino)-1-(6-(2-hydroxypropan-2-yl)pyridin-2-yl)-1,2-dihydro-3H-pyrazolo[3,4-d]pyrimidin-3-one] | < 6.00 | 6.00 to 7.00 | > 8.00
4 | C=CCn1c(=O)c2cnc(Nc3ccc4c(c3)CN(C(C)=O)CC4)nc2n1-c1cccc(C(C)(C)O)n1 [Example 8, 6-((2-Acetyl-1,2,3,4-tetrahydroisoquinolin-7-yl)amino)-2-allyl-1-(6-(2-hydroxypropan-2-yl)pyridin-2-yl)-1,2-dihydro-3H-pyrazolo[3,4-d]pyrimidin-3-one] | 6.00 to 7.00 | < 6.00 | > 8.00
5 | C=CCn1c(=O)c2cnc(Nc3ccc4c(c3)CCNC4)nc2n1-c1cccc(C(C)(C)O)n1 [Example 15, 2-Allyl-1-(6-(2-hydroxypropan-2-yl)pyridin-2-yl)-6-((1,2,3,4-tetrahydroisoquinolin-6-yl)amino)-1,2-dihydro-3H-pyrazolo[3,4-d]pyrimidin-3-one hydrogen chloride] | < 6.00 | 6.00 to 7.00 | > 8.00
6 | C=CCn1c(=O)c2cnc(Nc3ccc4c(c3)CCN(C)C4)nc2n1-c1cccc(C(C)(C)O)n1 [Example 16, 2-Allyl-1-(6-(2-hydroxypropan-2-yl)pyridin-2-yl)-6-((2-methyl-1,2,3,4-tetrahydroisoquinolin-6-yl)amino)-1,2-dihydro-3H-pyrazolo[3,4-d]pyrimidin-3-one] | < 6.00 | > 7.00 | > 8.00
7 | C=CCn1c(=O)c2cnc(Nc3ccc4c(c3)C(=O)NCC4)nc2n1-c1cccc(C(C)(C)O)n1 [Example 19, 7-((2-Allyl-1-(6-(2-hydroxypropan-2-yl)pyridin-2-yl)-3-oxo-2,3-dihydro-1H-pyrazolo[3,4-d]pyrimidin-6-yl)amino)-3,4-dihydroisoquinolin-1(2H)-one] | < 6.00 | < 6.00 | > 8.00
8 | C=CCn1c(=O)c2cnc(Nc3ccc4c(c3)CNCC43CC3)nc2n1-c1cccc(C(C)(C)O)n1 [Example 2, 2-Alyl-6-((2′,3′-dihydro-1′H-spiro[cyclopropane-1,4′-isoquinolin]-7′-yl)amino)-1-(6-(2-hydroxypropan-2-yl)pyridin-2-yl)-1,2-dihydro-3H-pyrazolo[3,4-d]pyrimidin-3-one hydrochloride] | < 6.00 | > 7.00 | > 8.00
9 | C=CCn1c(=O)c2cnc(Nc3ccc4c(c3)C(=O)N(C)CC4)nc2n1-c1cccc(C(C)(C)O)n1 [Example 20, 7-((2-Allyl-1-(6-(2-hydroxypropan-2-yl)pyridin-2-yl)-3-oxo-2,3-dihydro-H-pyrazolo[3,4-d]pyrimidin-6-yl)amino)-2-methyl-3,4-dihydroisoquinolin-1(2H)-one] | 6.00 to 7.00 | 6.00 to 7.00 | > 8.00
10 | C=CCn1c(=O)c2cnc(Nc3ccc4c(c3)CNCC4)nc2n1-c1cccc(C(C)(C)O)n1 [Example 6, 2-Allyl-1-(6-(2-hydroxypropan-2-yl)pyridin-2-yl)-6-((1,2,3,4-tetrahydroisoquinolin-7-yl)amino)-1,2-dihydro-3H-pyrazolo[3,4-d]pyrimidin-3-one hydrochloride] | 6.00 to 7.00 | 6.00 to 7.00 | > 8.00

Source: patent publication US11124518B2, “L,2-dihydro-3H-pyrazolo[3,4-D]pyrimidin-3-one analogs” (Recurium IP Holdings, LLC, priority 2017, dated 2021)
